# Assay results published in patent publication US9682960B2 (priority 2013, dated 2017).
# Read-outs that look alike come from different tables or passages of the source.
# How the values were obtained:
# [1] = biological target: Human Androgen Receptor (Homo sapiens (Human), UniProt P10275); experiment: Androgen receptor assay: [3H]R1881 displacement, cytosol of HEK-293 cells transfected with hAR (hydroxylapatite assay); assay type: binding; conditions: relative binding affinity, R1881 = 100
# [2] = system: Shionogi mouse mammary carcinoma cells; experiment: In vitro androgenic/antiandrogenic activity: proliferation of Shionogi cells with or without DHT; assay type: cell-based; conditions: Mus musculus
# [3] = system: castrated (CX) immature male rats; experiment: Systemic androgenic (agonistic) activity in orchidectomized (CX) immature male rats; assay type: in vivo, rat; conditions: 0.1 mg/rat/po, 7 days; for CX Agonistic activity % Stimulation Bulbo: bulbocavernosus muscles weight; for CX Agonistic activity % Stimulation SV: seminal vesicles weight; for CX Agonistic activity % Stimulation Prostate: ventral prostate weight
# Experimental: Immature male rats (Crl:CD(SD)Br) 22 to 24-day old weighting 60-80 g at start of treatment were obtained from Charles-River, Inc. (St-Constant, Quebec, Canada) and housed up to 5 per cage in plastic bins in a temperature (23±1° C.)- and light (12 h light/day, lights on at 7 h15)-controlled environment. The rats were fed rodent chow and tap water ad libitum. […] The day following their arrival, the designed animals were orchidectomized (CX) under Isoflurane anesthesia (Study Day 1) via the scrotal route and were then randomly assigned to groups of 3 to 5 animals. At the time of orchidectomy, one silastic implant of dihydrotestosterone (DHT; 1 cm length of pure DHT in silastic tubing having inner and outer diameter of 0.078 and 0.125 inches, respectively), was inserted subcutaneously in the dorsal area of animals assigned to the evaluation of antiandrogenic activity. In the case of intact animal experiments, the orchidectomy and the silastic implant installation are omitted.
# Tested compounds were administered orally once daily for 7 days from Study Day 2 to Study Day 8 at doses generally ranging from 0.1 and 0.5 mg/animal. Compounds were either solubilized in dimethylsulfoxide (DMSO, 10% final concentration) and were administered as a solution/suspension in 0.9% NaCl-1% gelatin or were administered as suspensions in 0.4% aqueous methylcellulose. Animals of the control groups received the corresponding vehicle alone during the 7-day period. Some animals were treated with the antiandrogen Flutamide or Casodex as reference. The animals under isoflurane anesthesia were killed by cervical dislocation on day 9 of the study, approximately 24 h after the last dosing. The ventral prostate, seminal vesicles and bulbocavernosus muscles were rapidly dissected and weighed.
# For calculations with intact animals, control DHT is replaced by control intact and the % stimulation is subtracted by 100%. W is the weight of the prostate, seminal vesicles or bulbocavernosus muscles. Discussion
# [4] = read-out: Shionogi Antiandrogenic Activity IC50, DHT (0.3 nM)-stimulated cell number
# [5] = DHT (0.3 nM)-stimulated cell number, read-out: Shionogi Antiandrogenic Activity IC50
# Chain of Human Androgen Receptor (P10275 whole entry): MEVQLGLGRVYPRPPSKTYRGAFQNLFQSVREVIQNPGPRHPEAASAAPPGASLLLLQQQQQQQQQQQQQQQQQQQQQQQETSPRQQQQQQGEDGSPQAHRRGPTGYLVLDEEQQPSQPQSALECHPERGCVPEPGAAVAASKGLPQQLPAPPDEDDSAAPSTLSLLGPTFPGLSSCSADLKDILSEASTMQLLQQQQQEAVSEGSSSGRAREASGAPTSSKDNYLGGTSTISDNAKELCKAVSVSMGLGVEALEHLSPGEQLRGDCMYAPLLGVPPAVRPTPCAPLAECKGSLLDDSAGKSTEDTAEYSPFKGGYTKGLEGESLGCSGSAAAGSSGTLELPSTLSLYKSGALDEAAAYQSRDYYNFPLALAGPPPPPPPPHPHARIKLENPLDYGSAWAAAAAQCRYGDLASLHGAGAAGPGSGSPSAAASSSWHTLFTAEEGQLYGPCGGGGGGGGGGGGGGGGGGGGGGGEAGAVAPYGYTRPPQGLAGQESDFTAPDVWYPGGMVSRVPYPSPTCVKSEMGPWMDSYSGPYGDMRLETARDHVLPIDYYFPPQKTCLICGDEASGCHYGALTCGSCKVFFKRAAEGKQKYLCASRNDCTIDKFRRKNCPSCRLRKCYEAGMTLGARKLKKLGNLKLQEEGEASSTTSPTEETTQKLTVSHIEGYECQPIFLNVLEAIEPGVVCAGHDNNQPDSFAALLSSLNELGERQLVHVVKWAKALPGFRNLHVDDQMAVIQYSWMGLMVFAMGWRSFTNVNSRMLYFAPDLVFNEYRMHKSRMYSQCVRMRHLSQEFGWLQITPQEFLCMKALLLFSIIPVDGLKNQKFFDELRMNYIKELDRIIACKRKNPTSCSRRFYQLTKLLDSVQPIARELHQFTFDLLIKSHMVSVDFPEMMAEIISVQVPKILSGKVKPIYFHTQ
SMILES,Human Androgen Receptor Binding RBA (%) R1881 = 100 ([1]; […]),"IC50 [2, 4] [nM]",CX Agonistic activity % Stimulation Bulbo [3],CX Agonistic activity % Stimulation SV [3],CX Agonistic activity % Stimulation Prostate [3],Human Androgen Receptor Binding RBA (%) R1881 = 100 ([1]; transfected cells),"IC50 [2, 5] [nM]"
Cc1c(N2C(=O)C(C)(C)N(CCCOc3ccc(-c4cccnc4)cc3)C2=S)ccc(C#N)c1Cl [EM-8656],477 ± 16 (n = 2) %,> 100,73%,24%,38%,,
Cc1c(N2C(=O)C(C)(C)N(CCCOc3ccc(-c4ccncc4)cc3)C2=S)ccc(C#N)c1Cl [EM-8664],664%,> 100,177%,66%,62%,,
Cc1c(N2C(=O)C(C)(C)N(CCCOc3ccc(-c4cncnc4)cc3)C2=S)ccc(C#N)c1Cl [EM-8685],144%,> 100,136%,20%,41%,,
Cc1c(N2C(=O)C(C)(C)N(CCCOc3ccc(-c4cccnc4)cc3F)C2=S)ccc(C#N)c1Cl [EM-8714],355%,97,78%,18%,45%,,
Cc1c(N2C(=O)C(C)(C)N(CCCOc3ccc(-c4ccccn4)cc3F)C2=S)ccc(C#N)c1Cl [EM-8715],155%,57.3,58%,11%,35%,,
Cc1c(N2C(=O)C(C)(C)N(CCCOc3ccc(-c4ccncc4)cc3F)C2=S)ccc(C#N)c1Cl [EM-8723],408%,120,129%,56%,60%,,
Cc1c(N2C(=O)C(C)(C)N(CCCOc3ccc4ncccc4c3)C2=S)ccc(C#N)c1Cl [EM-8728],125.4%,53.4,98%,25%,48%,,
Cc1c(N2C(=O)C(C)(C)N(CCCOc3ccc4cccnc4c3)C2=S)ccc(C#N)c1Cl [EM-8730],,,178%,73%,59%,140.5%,105
Cc1c(N2C(=O)C(C)(C)N(CCCOc3ccc(-c4ccncc4)cc3C(F)(F)F)C2=S)ccc(C#N)c1C(F)(F)F [EM-8772],,,104%,15%,29%,2.6%,137
Cc1c(N2C(=O)C(C)(C)N(CCCOc3ccc(-c4ccncc4)cc3C(F)(F)F)C2=S)ccc(C#N)c1Cl [EM-8773],28.1%,125,123%,30%,30%,,
Cc1c(N2C(=O)N(CCCOc3ccc4cccnc4c3)C(C)(C)C2=O)ccc(C#N)c1Cl [EM-8786],,191 ± 87,124 ± 32 (n = 2) %,10 ± 10 (n = 2) %,35 ± 10 (n = 2) %,8.9 ± 0.2 (n = 2) %,
Cc1c(N2C(=O)C(C)(C)N(CCCOc3ccc(-c4ccncc4)cc3F)C2=S)ccc(C#N)c1C(F)(F)F [EM-8793],,48.2,139%,42%,29%,412%,
Cc1c(N2C(=O)C(C)(C)N(CCCOc3ccc(-c4ccncc4)c(F)c3)C2=S)ccc(C#N)c1Cl [EM-8796],698%,188,168%,127%,58%,,
Cc1c(N2C(=O)C(C)(C)N(CCCOc3ccc(-c4ccncc4)c(F)c3)C2=S)ccc(C#N)c1C(F)(F)F [EM-8797],,,143%,58%,50%,400%,108
Cc1c(N2C(=O)C(C)(C)N(CCCOc3ccc(-c4ccncc4)cc3Cl)C2=S)ccc(C#N)c1C(F)(F)F [EM-8798],,130,114%,25%,49%,219%,
Cc1c(N2C(=O)C(C)(C)N(CCCOc3ccc(-c4ccncc4)cc3Cl)C2=S)ccc(C#N)c1Cl [EM-8799],877%,116,126%,55%,58%,,
Cc1c(N2C(=O)C(C)(C)N(CCCOc3ccc(-c4ccncc4)cn3)C2=S)ccc(C#N)c1Cl [EM-8815],,80,163%,75%,59%,159%,
Cc1c(N2C(=O)C(C)(C)N(CCCOc3ccc(-c4ccncc4)c(C(F)(F)F)c3)C2=S)ccc(C#N)c1Cl [EM-8820],,21.8,154%,58%,33%,263%,
Cc1c(N2C(=O)C(C)(C)N(CCCOc3ccc(-c4ccncc4)nc3)C2=S)ccc(C#N)c1Cl [EM-8827],113%,118 ± 14,133%,38%,41%,,
Cc1c(N2C(=O)C(C)(C)N(CCCOc3ccc(Oc4ccc(Cl)nc4)nc3)C2=S)ccc(C#N)c1Cl [EM-8828],112%,96.5,161%,31%,40%,,
Cc1c(N2C(=O)C(C)(C)N(CCCOc3ccc4cnccc4c3)C2=S)ccc(C#N)c1Cl [EM-8869],,,101%,18%,31%,56%,~1000
Cc1c(N2C(=O)C(C)(C)N(CCCOc3ccc(-c4ccncc4)c(Cl)c3)C2=S)ccc(C#N)c1Cl [EM-8887],1890 ± 1040 (n = 2) %,133,214%,107%,55%,,
Cc1c(N2C(=O)C(C)(C)N(CCCOc3ccc(-c4cc[n+]([O-])cc4)cc3)C2=S)ccc(C#N)c1Cl [EM-8913],114%,> 100,160%,65%,54%,,
